≈ marks a conversion by molar mass, not a printed value. Bounds are passed on as bounds.

The conditions of the data set: buffer; pH 7.4; 200.0 µM.
Turning to `Cc1ccsc1C(=O)OCC(=O)NCc1ccc(Cl)cc1`, the kinetic solubility came out at 4.5 µg/mL (≈ 13.9 µM).
Consider `O=C(CN1CCCCC1)n1c2ccccc2c2ccccc21`, for which the kinetic solubility was found to be 24.3 µg/mL (≈ 83.1 µM).
The compound `CSc1sccc1/C=C(/C#N)C(=O)c1ccco1` showed a solubility (kinetic) of 22.6 µg/mL (≈ 82.1 µM).
The compound `Cc1nc(Nc2ccccc2)sc1C(=O)Nc1ccccc1` yielded a solubility (kinetic) of 1.6 µg/mL (≈ 5.17 µM).
Then `O=C(O)Cn1cnc2scc(-c3ccccc3)c2c1=O`, with greater than 42.9 µg/mL.
Compound `COc1ccc(CNCC(O)COc2ccc(C)cc2[N+](=O)[O-])cc1` (stereo not drawn) yielded a kinetic solubility greater than 52 µg/mL.
In the case of `Cc1ccccc1CNC(=O)C1CCCN(c2cnccn2)C1` (stereo not drawn), the kinetic solubility was 44.3 µg/mL (≈ 143 µM).
Turning to `c1ccc(CNc2nc(-c3cccnc3)cs2)cc1`, the solubility (kinetic) amounted to 22.4 µg/mL (≈ 83.8 µM).
Consider `COc1ccc(OC)c(/C=C(\C)C(=O)c2c(C)cc(C)[nH]c2=O)c1`, for which the kinetic solubility was determined as 40.4 µg/mL (≈ 123 µM).
In turn, `O=C1OC(c2ccc(Cl)cc2)=C/C1=C/c1cccnc1` returned a kinetic solubility of 0.7 µg/mL (≈ 2.47 µM).
For `CCC(=O)Nc1ccccc1-c1nc2ccccc2[nH]c1=O`, the kinetic solubility was greater than 44 µg/mL.
Then `O=[N+]([O-])c1cccnc1SCc1c(F)cccc1Cl`, with less than 0.3 µg/mL.
For the compound `Cn1c(O)c(C=Nc2cccc(C(F)(F)F)c2)c(=O)n(C)c1=O`, the kinetic solubility was found to be 10.6 µg/mL (≈ 32.4 µM).
As to `CCC(C)NC(=O)C1CCN(S(=O)(=O)N2CCOCC2)CC1` (stereo not drawn), the solubility (kinetic) is greater than 50 µg/mL.
`CN(C)/N=C/c1ccc(N2CCOCC2)cc1` gave a kinetic solubility greater than 35 µg/mL.
`O=C(Nc1cccc2cccnc12)c1ccc(Cl)cc1` yielded a solubility (kinetic) of less than 0.3 µg/mL.
`COc1ccc(C(=O)N2CCC2)cc1S(=O)(=O)NCc1ccc(Cl)cc1` gave a solubility (kinetic) of 57.4 µg/mL (≈ 145 µM).
Compound `CCCC(=O)NC(c1ccc(Cl)cc1)c1ccc2cccnc2c1O` (stereo not drawn) came in with a solubility (kinetic) of 0.4 µg/mL (≈ 1.13 µM).
As to `N#CCCN(C(=O)COC(=O)c1ccc(S(=O)(=O)N2CCOCC2)cc1)c1ccccc1`, the kinetic solubility is 8.2 µg/mL (≈ 17.9 µM).
`CC(NC(=O)N1CCOCC1)c1ccccc1` (stereo not drawn) came in with a kinetic solubility greater than 35.1 µg/mL.
With `CCN(Cc1ccccc1)C(=O)c1[nH]c2ccc(OC)cc2c1C`, the solubility (kinetic) came to 31.2 µg/mL (≈ 96.8 µM).
Then `CCC(C)Nc1nc(N)c([N+](=O)[O-])c(Nc2cc(OC)ccc2OC)n1` (stereo not drawn), with 1.2 µg/mL (≈ 3.31 µM).
Then `CCc1ccc2c(c1)C(O)(CC(=O)c1cccs1)C(=O)N2` (stereo not drawn), with greater than 45.2 µg/mL; and `CCC(=O)c1ccc(OCC(O)CNC2CCCC2)cc1` (stereo not drawn), with 35.6 µg/mL (≈ 122 µM); and `CCC(=O)c1cn(CC(=O)Nc2cccc(OC)c2)c2ccccc12`, with less than 0.4 µg/mL.
In turn, `Cc1ccc(C(=O)Cn2cc([N+](=O)[O-])nc2C)cc1` gave a kinetic solubility of 11.7 µg/mL (≈ 45.1 µM).
`COc1ccc(Cl)cc1C(=O)N1CCN(Cc2ccc3c(c2)OCO3)CC1` came in with a solubility (kinetic) of 47.4 µg/mL (≈ 122 µM).
Turning to `COc1cccc(NC(=O)C2COc3ccccc3O2)c1` (stereo not drawn), the kinetic solubility was greater than 42.8 µg/mL.
In turn, `O=C(CNC(=O)C1CCCCC1)OCC(=O)c1cccc(Cl)c1` gave a kinetic solubility of 46.8 µg/mL (≈ 139 µM).
In turn, `CCOc1ccccc1CNCC1CCCO1.Cl` (stereo not drawn) came in with a kinetic solubility of 31.5 µg/mL.
Then `CCC(Sc1nc(-c2ccccc2)c(-c2ccccc2)[nH]1)C(=O)O` (stereo not drawn), with 44.8 µg/mL (≈ 132 µM); and `O=C(CSc1ncc(C(F)(F)F)cc1Cl)N1CCNC1=O`, with greater than 51 µg/mL; and `CCOc1ccc(CNCc2ccccc2Cl)cc1.Cl`, with 31.6 µg/mL.
In turn, `CCCCC(CC)C(=O)Nc1ncc([N+](=O)[O-])s1` (stereo not drawn) came in with a kinetic solubility greater than 40.7 µg/mL.
In turn, `N/C(=N\OC(=O)Cc1ccccc1)c1cccc(Br)c1` gave a kinetic solubility of 1.1 µg/mL (≈ 3.3 µM).
In turn, `O=C(c1ccccc1)c1cccc[n+]1[O-]` registered a solubility (kinetic) greater than 29.9 µg/mL.
Take `COc1cc(C(=O)OCCNC(=O)c2ccccc2)cc(OC)c1OC`: the solubility (kinetic) is greater than 53.9 µg/mL.
Then `Cc1ccc(C(=O)NCCCNC(=O)c2ccc(C)nc2)cc1`, with greater than 46.7 µg/mL.
Compound `CCNS(=O)(=O)c1ccc(CCC(=O)NCc2cccnc2)cc1` gave a kinetic solubility of 35.6 µg/mL (≈ 102 µM).
`O=C(NC(=S)NCc1ccc(Cl)cc1Cl)c1ccco1` registered a solubility (kinetic) of 1.4 µg/mL (≈ 4.25 µM).
Turning to `Cc1ccnc(NC(=O)CC(c2ccccc2)c2ccccc2)n1`, the solubility (kinetic) stood at 35.7 µg/mL (≈ 112 µM).
As for `COc1ccc(OC)c(NC(=O)COC(=O)COc2ccc(Nc3ccccc3)cc2)c1`, the solubility (kinetic) was 15.7 µg/mL (≈ 36 µM).
For `Cc1sc(NC(=O)Nc2ccccc2)c(C(N)=O)c1C`, the solubility (kinetic) is 5.1 µg/mL (≈ 17.6 µM).
As to `NC12NC(=O)C3(O)C4C5CC(C6C5C3C61)C42` (stereo not drawn), the kinetic solubility was greater than 32.7 µg/mL.
`CCCNC(=O)COC(=O)c1ccc(-c2ccccc2)cc1` gave a solubility (kinetic) of 1 µg/mL (≈ 3.36 µM).
`O=C(Nc1ccccn1)c1cc2ccccc2cc1O` registered a kinetic solubility of 0.5 µg/mL (≈ 1.89 µM).
As for `CCCCCn1c(C)c2c(OCC)cccc(=O)c2c1C`, the kinetic solubility came out at 9.4 µg/mL (≈ 32.7 µM).
`CN(c1ccccc1)S(=O)(=O)c1cccc(C(=O)NC2CCCC2)c1` showed a solubility (kinetic) of 47.3 µg/mL (≈ 132 µM).
As to `O=C(Nc1ccccc1Cl)c1cc(=O)c2ccccc2o1`, the kinetic solubility came out at 0.7 µg/mL (≈ 2.34 µM).
`O=C(Nc1nc2ccccc2[nH]1)c1ccccc1OC(F)F` showed a kinetic solubility of 8.9 µg/mL (≈ 29.3 µM).
Compound `COc1ccc(CC(=O)Nc2c(C(N)=O)oc3ccccc23)cc1` gave a kinetic solubility of 1.6 µg/mL (≈ 4.93 µM).
Compound `Cl.O=C1C2CCCC1C(N1CCCCC1)CC2` (stereo not drawn) gave a solubility (kinetic) greater than 38.7 µg/mL.
Then `O=C(O)c1ccccc1Nc1ccnc(Cl)n1`, with greater than 37.4 µg/mL.
`CCOc1ccc(NC(=O)CC(Cc2cc(C)cc(C)c2)C(=O)O)cc1` (stereo not drawn) displayed a solubility (kinetic) greater than 53.3 µg/mL.
In turn, `Cc1ccccc1CSc1nc2ccccc2c(=O)n1C` displayed a solubility (kinetic) of 1.5 µg/mL (≈ 5.06 µM).
In turn, `O=C(CCCCC(=O)Nc1ccc(F)cc1F)Nc1ccc(F)cc1F` gave a kinetic solubility of 4.4 µg/mL (≈ 11.9 µM).
Compound `O=C(CCc1nnc(CCC2CCCCC2)o1)NCc1ccon1` showed a kinetic solubility greater than 49.9 µg/mL.
Then `Nc1nc(NCC2CCCO2)nc(Nc2cccc(F)c2)c1[N+](=O)[O-]` (stereo not drawn), with less than 0.1 µg/mL; and `CCCC(=O)Nc1c(C(=O)OCC)oc2ccccc12`, with greater than 41.3 µg/mL.
As for `CC(C)N1CCN(c2ccc(S(=O)(=O)N3CCOCC3)cn2)CC1`, the kinetic solubility was greater than 53.2 µg/mL.
The compound `O=C(CSc1nnc2ccccn12)NCCc1ccc(F)cc1` came in with a kinetic solubility greater than 49.6 µg/mL.
`COc1ccc(OCC(=O)C2CC2)c(C#N)c1` had a kinetic solubility of 27.5 µg/mL (≈ 119 µM).
Consider `COc1ccc(CCNc2ncnc3c2c(C)c(C)n3CCO)cc1OC`, for which the kinetic solubility came to 53.8 µg/mL (≈ 145 µM).
Consider `CN(C)C(=O)c1cc([N+](=O)[O-])ccc1O`, for which the kinetic solubility is greater than 31.5 µg/mL.
`S=C(NCc1ccc(Cl)c(Cl)c1)NCc1ccco1` had a kinetic solubility of 23.1 µg/mL (≈ 73.3 µM).
Take `CCCN(C(=O)c1cn(C)c(=O)c2ccccc12)c1ccccc1C`: the kinetic solubility was greater than 50.2 µg/mL.
`CC(C)(C)C(=O)Oc1cccc(Nc2ncnc3ccccc23)c1` had a kinetic solubility of 34.1 µg/mL (≈ 106 µM).
Then `Cc1nc2c(c(=O)c3ccccc3n2C)c(=O)n1-c1ccccc1`, with 46.2 µg/mL (≈ 146 µM); and `C[N+]1(C)[C@@H]2CC[C@H]1CC(OC(=O)C(CO)c1ccccc1)C2.O=[N+]([O-])[O-]` (stereo partly drawn), with greater than 55 µg/mL.
Compound `O=C(/C=C/c1ccccc1Cl)NC1CCCCC1` returned a solubility (kinetic) of less than 0.6 µg/mL.
Take `Cc1ccccc1NC(=O)c1ccno1`: the kinetic solubility came out at 23.5 µg/mL (≈ 116 µM).
`CCCN1CCC(N(CCc2ccccc2)Cc2ccccc2)CC1` came in with a solubility (kinetic) of 32.5 µg/mL (≈ 96.6 µM).
On to `Cc1c(C)n(CCCN(C)C)c2ncnc(NC3CCCCC3)c12`, for which the solubility (kinetic) was determined as 46.9 µg/mL (≈ 142 µM).
Then `CC(=O)N1C(C(=O)O)Cc2c([nH]c3ccccc23)C1C` (stereo not drawn), with greater than 40.8 µg/mL.
As for `CCOC(=O)C1CCN(Cc2ccc(O)c3ncccc23)CC1`, the solubility (kinetic) came out at 1.6 µg/mL (≈ 5.09 µM).
Then `CCOc1ccc(Nc2ncnc3ccc([N+](=O)[O-])cc23)cc1`, with 4.1 µg/mL (≈ 13.2 µM); and `Cc1cccc(CN2C3=NCCCN3c3ccccc32)c1.Cl`, with greater than 47.1 µg/mL.
As for `Cc1ccnc(NC(=O)CCS(=O)(=O)c2ccccc2)c1`, the solubility (kinetic) was greater than 45.7 µg/mL.
For `Cc1ccc(-c2nc(CN3CCN(c4cnccn4)CC3)c(C)o2)o1`, the kinetic solubility amounted to 38.3 µg/mL (≈ 113 µM).
Then `NS(=O)(=O)c1ccc(CCNC(=S)NC2CCCC2)cc1`, with greater than 49.1 µg/mL; and `Cc1cc(=O)[nH]c(N2CCCNCC2)n1`, with greater than 31.2 µg/mL.
Compound `O=C(c1c(F)cccc1F)N(C1CCCCC1)C1CCCCC1` came in with a kinetic solubility of 1 µg/mL (≈ 3.11 µM).
In turn, `Cc1ccc(C)c(NC(=O)C(c2ccccc2)N2CCN(CC(=O)N3CCOCC3)CC2)c1` (stereo not drawn) registered a solubility (kinetic) greater than 67.6 µg/mL.
`COc1ccc(-c2csc(N(C)C(=O)c3ccco3)n2)cc1`: the solubility (kinetic) was less than 0.3 µg/mL.
Regarding `COc1ccc(C(=O)O/N=C2\CCS(=O)(=O)c3sccc32)cc1`, the kinetic solubility was less than 0.8 µg/mL.
With `COc1ccc(C)cc1Nc1nc(N)c2cc(OC)c(OC)cc2n1`, the solubility (kinetic) was 40.1 µg/mL (≈ 118 µM).
In the case of `O=C(Cc1ccccc1)c1ccccc1C(=O)N1CCCCC1`, the kinetic solubility is greater than 46.1 µg/mL.
Then `Cc1ccc(S(=O)(=O)Nc2ccc(Cl)cn2)cc1`, with 28.3 µg/mL (≈ 100 µM); and `O=C(Nc1cccc(C(=O)O)c1)/C(=C\c1ccco1)NC(=O)c1ccccc1`, with 51 µg/mL (≈ 136 µM); and `O=C(COC(=O)c1cc(Cl)nc(Cl)c1)NCCc1ccc(F)cc1`, with greater than 55.7 µg/mL.
Compound `c1ccc2c(c1)cnc1ccccc12` showed a solubility (kinetic) of 7.7 µg/mL (≈ 43 µM).
For `CCN1CCN(C(=O)C23CCC(C)(C(=O)C2Br)C3(C)C)CC1` (stereo not drawn), the solubility (kinetic) is greater than 55.7 µg/mL.
With `CC(C)Sc1sc(C(=O)O)c(-c2ccc(Cl)cc2)c1C#N`, the kinetic solubility was greater than 50.7 µg/mL.
As to `CCCCc1nnc(NC(=O)C2=COCCO2)s1`, the solubility (kinetic) is greater than 40.4 µg/mL.
As for `O=C(COC(=O)c1cc[n+]([O-])cc1)NC(=O)c1ccc(OC(F)F)cc1`, the kinetic solubility was greater than 54.9 µg/mL.
Then `O=C(COC(=O)c1ccccc1Br)NCC1CCCO1` (stereo not drawn), with greater than 51.3 µg/mL.
As to `CC(=O)c1ccc(OCC(=O)N2CCCC2c2ccc3c(c2)OCCCO3)cc1` (stereo not drawn), the solubility (kinetic) stood at 49.2 µg/mL (≈ 124 µM).
The compound `Nc1nnc(SCC(=O)N2CCCCC2)s1` came in with a kinetic solubility greater than 38.8 µg/mL.
In the case of `O=C1CSC(c2cccc(F)c2)N1c1ccccc1` (stereo not drawn), the kinetic solubility was greater than 41 µg/mL.
As to `CC1CCCC(C)N1CC(O)COCc1ccccc1F.Cl` (stereo not drawn), the kinetic solubility turned out to be 45.6 µg/mL.
The compound `CN(C)c1cccc(N(C)C)c1CNC(=O)NC(=O)c1c(F)cccc1F` came in with a solubility (kinetic) of 0.3 µg/mL (≈ 0.797 µM).
Turning to `Cc1c(NS(=O)(=O)c2cc(C(=O)N(C)Cc3ccccc3)ccc2Cl)c(=O)n(-c2ccccc2)n1C`, the solubility (kinetic) was greater than 78.8 µg/mL.
For `CCc1ccc(NC(=O)c2[nH]c(C)c(C(C)=O)c2C)cc1`, the kinetic solubility came out at 5.1 µg/mL (≈ 17.9 µM).

The values are drawn from PubChem BioAssay AID1996.
